# Reference: US11591574B2, “Optical-quality surface that imparts spatial control of macrophage fusion” (ARIZONA BOARD OF REGENTS ON BEHALF OF ARIZONA STATE …, priority 2016, dated 2023)
# Entries after “also recorded” stand apart in the source; their conditions may differ.
# Tested on: macrophages
# Assay: IL-4-induced macrophage fusion (fusion index)
# Type: cell-based, mouse
# Protocol: To test the rates of cell fusion on the above described glass slides with a pattern surface, monocytes or macrophages are collected according to standard protocols and applied to hydrocarbon chain surface. After 30 minutes, the cultures are washed 3 times rapidly with phosphate-buffered saline to remove unbound cells, and complete cell culture medium (DMEM:F12, 10% FBS, 1% antibiotics) is applied to the culture for about 2 hours. After about 2 hours, about 10 ng/ml of interleukin-4 is applied to the culture to induce fusion and the culture is incubated until the respective time point.
# Macrophages were isolated from the mouse peritoneum 72 hr after injection of a sterile 4% solution of Brewer's thioglycollate (Sigma Aldrich, St. Louis, Mo.). […] Immediately following euthanasia, 5 mL of an ice-cold solution of phosphate-buffered saline (PBS, pH 7.4) supplemented with 5 mM EDTA was injected aseptically into the peritoneum, the lavage containing cells was collected, and the cells were counted with a Neubauer hemocytometer. […]
# Peritoneal lavage cells were applied to various surfaces at a concentration of 2,000 cells/mm2 and incubated in 5% CO2 at 37° C. for 30 min. […] The extent of MGCs formation was evaluated by determining the fusion index. […] Three to 5 bright field images collected at 20× objective magnification were analyzed per specimen.
compound,measurement,setting,value
CCCCCCCC/C=C\CCCCCCCC(N)=O [oleamide],increase in fusion versus clean glass,adsorption onto clean glass,~4 fold
same,level of macrophage fusion,"hydrocarbon deposited on optical-quality glass, IL-4 induced",high-levels; also recorded: high levels
